Test results reported in ChEMBL document CHEMBL1137749, “Antifungal unsaturated cyclic Mannich ketones and amino alcohols: study of mechanism of action” (2009).
Converted amounts (≈) assume the structure as drawn. The source made the active and inactive calls. The calls are words filed in the database; no cut-off is given here.

Columns and labels:
Candida albicans [1] = experiment: Antifungal activity against Candida albicans ATCC 90028 after 48 hrs by macro tube dilution method; format: functional; settings: ATCC 90028, 48 h
Nakaseomyces glabratus = experiment: Antifungal activity against Candida glabrata ATCC 3916 after 48 hrs by macro tube dilution method; format: functional; settings: ATCC 3916, 48 h
Pichia kudriavzevii = experiment: Antifungal activity against Candida krusei ATCC 30068 after 48 hrs by macro tube dilution method; format: functional; settings: ATCC 30068, 48 h
Candida parapsilosis = experiment: Antifungal activity against Candida parapsilosis ATCC 22019 after 48 hrs by macro tube dilution method; format: functional; settings: Lodderomyces parapsilosis, ATCC 22019, 48 h
Saccharomyces cerevisiae = experiment: Antifungal activity against Saccharomyces cerevisiae after 48 hrs by macro tube dilution method; format: functional
Aspergillus sp. = experiment: Antifungal activity against Aspergillus sp. after 48 hrs by macro tube dilution method; format: functional
Candida albicans [2] = experiment: Inhibition of chitin synthase in Candida albicans ATCC 90028 at 1.5 times MIC by liquid scintillation analyzer relative to nikkomycin
Candida albicans [3] = experiment: Antifungal activity against Candida albicans ATCC 90028 assessed as increase in 104 kDa fungal protein at 0.5 time MIC after 1 hr by electrophoresis-based microchip technology; format: functional, organism-based
Candida albicans [4] = experiment: Antifungal activity against Candida albicans ATCC 90028 assessed as increase in 104 kDa fungal protein at 2 times MIC after 1 hr by electrophoresis-based microchip technology; format: functional, organism-based
Candida albicans [5] = experiment: Antifungal activity against Candida albicans ATCC 90028 assessed as increase in 117 kDa fungal protein at 0.5 time MIC after 1 hr by electrophoresis-based microchip technology; format: functional, organism-based
Candida albicans [6] = experiment: Antifungal activity against Candida albicans ATCC 90028 assessed as increase in 117 kDa fungal protein at 2 times MIC after 1 hr by electrophoresis-based microchip technology; format: functional, organism-based
Candida albicans [7] = experiment: Antifungal activity against Candida albicans ATCC 90028 assessed as increase in 124 kDa fungal protein at 0.5 time MIC after 1 hr by electrophoresis-based microchip technology; format: functional, organism-based
Candida albicans [8] = experiment: Antifungal activity against Candida albicans ATCC 90028 assessed as increase in 124 kDa fungal protein at 2 times MIC after 1 hr by electrophoresis-based microchip technology; format: functional, organism-based
Candida albicans [9] = experiment: Antifungal activity against Candida albicans ATCC 90028 assessed as increase in 147 kDa fungal protein at 0.5 time MIC after 1 hr by electrophoresis-based microchip technology; format: functional, organism-based
Candida albicans [10] = experiment: Antifungal activity against Candida albicans ATCC 90028 assessed as increase in 147 kDa fungal protein at 2 times MIC after 1 hr by electrophoresis-based microchip technology; format: functional, organism-based
Candida albicans [11] = experiment: Antifungal activity against Candida albicans ATCC 90028 assessed as changes in fungal protein expression at 0.5 time MIC after 1 hr by electrophoresis-based microchip technology; format: functional, organism-based
Candida albicans [12] = experiment: Antifungal activity against Candida albicans ATCC 90028 assessed as changes in fungal protein expression at 2 times MIC after 1 hr by electrophoresis-based microchip technology; format: functional, organism-based
Rattus norvegicus = species on record: Rattus norvegicus; experiment: Inhibition of lactate dehydrogenase in Wistar rat kidney at 1.5 times MIC relative to control
Candida albicans [13] = experiment: Antifungal activity against Candida albicans ATCC 90028 assessed as number of fungal cells with pseudohyphae out of 100 cells at 0.5 time MIC after 0 to 6 hrs by light microscopy; format: functional
Candida albicans [14] = experiment: Antifungal activity against Candida albicans ATCC 90028 assessed as number of fungal cells without pseudohyphae out of 100 cells at 0.5 time MIC after 0 to 6 hrs by light microscopy; format: functional
Candida albicans [15] = experiment: Antifungal activity against Candida albicans ATCC 90028 assessed as inhibition of fungal ergosterol synthesis at 0.5 times MIC after 16 hrs by UV spectrophotometry; format: functional, organism-based

Compound	MIC (Candida albicans [1]) [µg/mL]	MIC (Nakaseomyces glabratus) [µg/mL]	MIC (Pichia kudriavzevii) [µg/mL]	MIC (Candida parapsilosis) [µg/mL]	MIC (Saccharomyces cerevisiae) [µg/mL]	MIC (Aspergillus sp.) [µg/mL]	further results
O[C@H]1/C(=C/c2ccccc2)CCCCC[C@H]1CN1CCOCC1 (relative stereo)	200 (≈ 634 µM)	200 (≈ 634 µM)	200 (≈ 634 µM)	200 (≈ 634 µM)	100 (≈ 317 µM)	> 200	Activity (Candida albicans [2]): Active
O[C@H]1/C(=C/c2ccccc2)CCC[C@@H]1CN1CCOCC1 (relative stereo)	200 (≈ 696 µM)	> 200	200 (≈ 696 µM)	> 200	200 (≈ 696 µM)	> 200	–
COc1ccc(/C=C2\CC[C@@H](CN3CCCCC3)[C@@H]2O)cc1 (relative stereo)	100 (≈ 332 µM)	> 200	100 (≈ 332 µM)	> 200	100 (≈ 332 µM)	200 (≈ 664 µM)	Activity (Candida albicans [3]): Active; Activity (Candida albicans [4]): inactive; Activity (Candida albicans [5]): Active; Activity (Candida albicans [6]): Active; Activity (Candida albicans [7]): Active; Activity (Candida albicans [8]): Active; Activity (Candida albicans [9]): inactive; Activity (Candida albicans [10]): inactive
O=C1/C(=C/c2ccccc2)CCC1CN1CCNCC1 (centres undefined)	6.25 (≈ 23.1 µM)	12.5 (≈ 46.2 µM)	12.5 (≈ 46.2 µM)	6.25 (≈ 23.1 µM)	1.56 (≈ 5.77 µM)	100 (≈ 370 µM)	Activity (Candida albicans [11]): inactive; Activity (Candida albicans [12]): inactive; inhibition (Candida albicans [2]): inactive
O=C1/C(=C/c2ccccc2)CCCCCC1CN1CCCCC1 (centres undefined)	100 (≈ 321 µM)	> 200	200 (≈ 642 µM)	200 (≈ 642 µM)	100 (≈ 321 µM)	100 (≈ 321 µM)	inhibition (Candida albicans [2]): 50%; inhibition (Rattus norvegicus): 30%
COc1ccc(/C=C2\CCCC(CN3CCOCC3)C2=O)cc1 (centres undefined)	25 (≈ 79.3 µM)	> 200	25 (≈ 79.3 µM)	12.5 (≈ 39.6 µM)	12.5 (≈ 39.6 µM)	> 200	–
O[C@H]1/C(=C/c2ccccc2)CCC[C@H]1CN1CCOCC1 (relative stereo)	> 200	> 200	> 200	> 200	> 200	> 200	–
O[C@H]1/C(=C/c2ccccc2)CCCC[C@@H]1CN1CCCCC1 (relative stereo)	50 (≈ 167 µM)	100 (≈ 334 µM)	100 (≈ 334 µM)	100 (≈ 334 µM)	25 (≈ 83.5 µM)	> 200	–
COc1ccc(/C=C2\CCC(CN3CCCCC3)C2=O)cc1 (centres undefined)	12.5 (≈ 41.7 µM)	6.25 (≈ 20.9 µM)	12.5 (≈ 41.7 µM)	6.25 (≈ 20.9 µM)	3.12 (≈ 10.4 µM)	100 (≈ 334 µM)	Activity (Candida albicans [3]): Active; Activity (Candida albicans [4]): Active; Activity (Candida albicans [5]): Active; Activity (Candida albicans [6]): Active; Activity (Candida albicans [7]): Active; Activity (Candida albicans [8]): Active; Activity (Candida albicans [9]): Active; Activity (Candida albicans [10]): Active
C[C@@H]1[C@H](O)[C@@H](C)/C=C/C=C/C=C/C=C/C=C/C=C/C=C/[C@H](O[C@@H]2O[C@H](C)[C@@H](O)[C@H](N)[C@@H]2O)C[C@@H]2O[C@](O)(C[C@@H](O)C[C@@H](O)[C@H](O)CC[C@@H](O)C[C@@H](O)CC(=O)O[C@H]1C)C[C@H](O)[C@H]2C(=O)O [AMPHOTERICIN B]	–	–	–	–	–	–	Activity (Candida albicans [13]): 18; Activity (Candida albicans [14]): 77
O[C@@H]1/C(=C/c2ccccc2)CC[C@H]1CN1CCCCC1 (relative stereo)	100 (≈ 368 µM)	> 200	50 (≈ 184 µM)	> 200	50 (≈ 184 µM)	> 200	–
O=C1/C(=C/c2ccccc2)CCC1CN1CCCC1 (centres undefined)	6.25 (≈ 24.5 µM)	12.5 (≈ 49 µM)	6.25 (≈ 24.5 µM)	6.25 (≈ 24.5 µM)	3.12 (≈ 12.2 µM)	50 (≈ 196 µM)	Activity (Candida albicans [11]): inactive; Activity (Candida albicans [12]): inactive
O=C1/C(=C/c2ccc3c(c2)OCO3)CCC1CN1CCOCC1 (centres undefined)	1.56 (≈ 4.95 µM)	3.12 (≈ 9.91 µM)	6.25 (≈ 19.8 µM)	6.25 (≈ 19.8 µM)	3.12 (≈ 9.91 µM)	> 200	Activity (Candida albicans [15]): inactive
O=C1/C(=C/c2ccccc2)CCC1CN1CCc2ccccc2C1 (centres undefined)	12.5 (≈ 39.4 µM)	6.25 (≈ 19.7 µM)	12.5 (≈ 39.4 µM)	12.5 (≈ 39.4 µM)	1.56 (≈ 4.91 µM)	200 (≈ 630 µM)	Activity (Candida albicans [3]): Active; Activity (Candida albicans [4]): Active; Activity (Candida albicans [5]): Active; Activity (Candida albicans [6]): Active; Activity (Candida albicans [7]): Active; Activity (Candida albicans [8]): Active; Activity (Candida albicans [9]): Active; Activity (Candida albicans [10]): Active
O=C1/C(=C/c2ccccc2)CCCC1CN1CCOCC1 (centres undefined)	25 (≈ 87.6 µM)	> 200	25 (≈ 87.6 µM)	12.5 (≈ 43.8 µM)	3.12 (≈ 11 µM)	> 200	–
COc1ccc(/C=C2\CCC(CN3CCOCC3)C2=O)cc1 (centres undefined)	3.12 (≈ 10.4 µM)	6.25 (≈ 20.7 µM)	12.5 (≈ 41.5 µM)	6.25 (≈ 20.7 µM)	1.56 (≈ 5.18 µM)	200 (≈ 664 µM)	Activity (Candida albicans [11]): inactive; Activity (Candida albicans [12]): inactive

Compound	MIC (Candida albicans [1]) [µg/mL]	MIC (Nakaseomyces glabratus) [µg/mL]	MIC (Pichia kudriavzevii) [µg/mL]	MIC (Candida parapsilosis) [µg/mL]	MIC (Saccharomyces cerevisiae) [µg/mL]	MIC (Aspergillus sp.) [µg/mL]	further results
O=C1/C(=C/c2ccccc2)CCCC1CN1CCCC1 (centres undefined)	25 (≈ 92.8 µM)	25 (≈ 92.8 µM)	25 (≈ 92.8 µM)	12.5 (≈ 46.4 µM)	12.5 (≈ 46.4 µM)	100 (≈ 371 µM)	–
O[C@H]1/C(=C/c2ccccc2)CCCC[C@H]1CN1CCCCC1 (relative stereo)	> 200	200 (≈ 668 µM)	200 (≈ 668 µM)	> 200	50 (≈ 167 µM)	200 (≈ 668 µM)	–
Cc1ccc(/C=C2\CCC(CN3CCOCC3)C2=O)cc1 (centres undefined)	6.25 (≈ 21.9 µM)	3.12 (≈ 11 µM)	12.5 (≈ 43.8 µM)	6.25 (≈ 21.9 µM)	1.56 (≈ 5.47 µM)	25 (≈ 87.6 µM)	–
COc1ccc(/C=C2\CCCC(CN3CCOCC3)C2=O)cc1OC (centres undefined)	25 (≈ 72.4 µM)	100 (≈ 289 µM)	50 (≈ 145 µM)	50 (≈ 145 µM)	25 (≈ 72.4 µM)	> 200	–
O[C@H]1/C(=C/c2ccccc2)CCCCC[C@H]1CN1CCCCC1 (relative stereo)	100 (≈ 319 µM)	50 (≈ 159 µM)	6.25 (≈ 19.9 µM)	50 (≈ 159 µM)	6.25 (≈ 19.9 µM)	50 (≈ 159 µM)	Activity (Candida albicans [2]): inactive
COc1ccccc1/C=C1\CCC(CN2CCCCC2)C1=O (centres undefined)	6.25 (≈ 20.9 µM)	12.5 (≈ 41.7 µM)	12.5 (≈ 41.7 µM)	12.5 (≈ 41.7 µM)	6.25 (≈ 20.9 µM)	100 (≈ 334 µM)	Activity (Candida albicans [11]): inactive; Activity (Candida albicans [12]): inactive
COc1cccc(/C=C2\CCC(CN3CCCCC3)C2=O)c1 (centres undefined)	12.5 (≈ 41.7 µM)	12.5 (≈ 41.7 µM)	12.5 (≈ 41.7 µM)	6.25 (≈ 20.9 µM)	6.25 (≈ 20.9 µM)	100 (≈ 334 µM)	–
CC1CCN(CC2CCC/C(=C\c3ccccc3)C2=O)CC1 (centres undefined)	12.5 (≈ 42 µM)	100 (≈ 336 µM)	100 (≈ 336 µM)	25 (≈ 84 µM)	12.5 (≈ 42 µM)	100 (≈ 336 µM)	–
Cc1ccc(/C=C2\CCCC(CN3CCOCC3)C2=O)cc1 (centres undefined)	100 (≈ 334 µM)	> 200	200 (≈ 668 µM)	25 (≈ 83.5 µM)	3.12 (≈ 10.4 µM)	> 200	–
O=C1/C(=C/c2ccccc2)CCCCC1CN1CCOCC1 (centres undefined)	25 (≈ 83.5 µM)	> 200	100 (≈ 334 µM)	100 (≈ 334 µM)	50 (≈ 167 µM)	200 (≈ 668 µM)	Activity (Candida albicans [15]): inactive; inhibition (Candida albicans [2]): 24%; inhibition (Rattus norvegicus): inactive
O[C@H]1/C(=C/c2ccccc2)CCCC[C@H]1CN1CCOCC1 (relative stereo)	> 200	> 200	> 200	> 200	> 200	> 200	–
O=C1/C(=C/c2ccccc2)CCCCCC1CN1CCOCC1 (centres undefined)	> 200	> 200	> 200	> 200	200 (≈ 638 µM)	> 200	inhibition (Candida albicans [2]): Active
O=C1/C(=C/c2ccccc2)CCC1CN1CCOCC1 (centres undefined)	3.12 (≈ 11.5 µM)	6.25 (≈ 23 µM)	3.12 (≈ 11.5 µM)	3.12 (≈ 11.5 µM)	0.8 (≈ 2.95 µM)	50 (≈ 184 µM)	–
COc1cc(/C=C2\CCC(CN3CCCCC3)C2=O)cc(OC)c1OC (centres undefined)	12.5 (≈ 34.8 µM)	100 (≈ 278 µM)	12.5 (≈ 34.8 µM)	50 (≈ 139 µM)	25 (≈ 69.5 µM)	100 (≈ 278 µM)	–
CC1CCN(C[C@H]2CCC/C(=C\c3ccccc3)[C@@H]2O)CC1 (relative stereo)	> 200	> 200	> 200	> 200	100 (≈ 334 µM)	> 200	–
